Consider 24 compounds from ChEMBL document CHEMBL4177607, “Antibacterial constituents of the plant family Amaryllidaceae” (2017).

≈ marks a conversion by molar mass, not a printed value.

Format in all cases: functional
The test system of assay [1] is Flavobacterium columnare. Put plainly: Antibacterial activity against Flavobacterium columnare ALM-00-173 after 24 hrs. To be noted: ALM-00-173, 24 h.
In assay [2] the test system is Flavobacterium columnare. Put plainly: Antibacterial activity against Flavobacterium columnare BioMed after 24 hrs.
The subject of assay [3] is Escherichia coli. Put plainly: Antibacterial activity against Escherichia coli after 24 hrs by broth microdilution method. (In general: Dilution methods test growth across graded concentrations, often in twofold steps.)
In assay [4] the test system is Pseudomonas aeruginosa. Description: Antibacterial activity against Pseudomonas aeruginosa after 24 hrs by broth microdilution method.
In assay [5] the test system is Shigella flexneri. Description: Antibacterial activity against Shigella flexneri after 24 hrs by broth microdilution method.
Assay [6] deals with Escherichia coli. Put plainly: Antibacterial activity against Escherichia coli assessed as diameter of inhibition zone at 1 mg/ml. To be noted: read-out: DIZ.
The test system of assay [7] is Staphylococcus aureus. Description: Antibacterial activity against Staphylococcus aureus assessed as diameter of inhibition zone at 1 mg/ml. To be noted: read-out: DIZ.
Assay [8] concerns Edwardsiella ictaluri. Description: Antibacterial activity against Edwardsiella ictaluri after 24 hrs.
Assay [9] has as its system Staphylococcus aureus. Put plainly: Antibacterial activity against Staphylococcus aureus.
For assay [10], the system named is Escherichia coli. Put plainly: Antibacterial activity against Escherichia coli incubated overnight by two-fold serial dilution method.
Assay [11] relates to Staphylococcus aureus. Put plainly: Antibacterial activity against Staphylococcus aureus incubated overnight by two-fold serial dilution method.
For assay [12], the system named is Rhodococcus fascians. Put plainly: Antibacterial activity against Corynebacterium fascians assessed as diameter of inhibition zone at 10 mM after 48 to 72 hrs by paper disc method. The note with it: Rhodococcoides fascians; read-out: DIZ.
Assay [13] concerns Staphylococcus aureus. Description: Antibacterial activity against Staphylococcus aureus assessed as diameter of inhibition zone at 3 mg/ml. To be noted: read-out: DIZ.

Consider `C[N+]12CCC3=C[C@H](OC(=O)c4ccccc4Cl)[C@@H](OC(=O)c4ccccc4Cl)[C@@H](c4cc5c(cc4C1)OCO5)[C@@H]32.[I-]` (stereo not given in full), for which the MIC in assay [1] and in assay [2] was greater than 70 µg/mL in each case.

For the compound `CCCCCCCC(=O)Oc1c(C)c(O)c2c(c1C)O[C@H](c1ccc(O)cc1)CC2=O`, the MIC stood at 16 µg/mL (≈ 37.5 µM) in assay [3], 32 µg/mL (≈ 75 µM) in assay [4] and 16 µg/mL (≈ 37.5 µM) in assay [5].

As for `O=C1N[C@H]2[C@H](O)[C@H](O)[C@@H](O)C[C@@H]2c2cc3c(c(O)c21)OCO3`, the MIC in assay [3] stood at 4 µg/mL (≈ 12.9 µM); in assay [4], 16 µg/mL (≈ 51.7 µM); in assay [5], 4 µg/mL (≈ 12.9 µM).

For the compound `Cc1ccccc1C(=O)O[C@H]1C=C2CCN3Cc4cc5c(cc4[C@H]([C@@H]1O)[C@@H]23)OCO5`, the figures for the MIC in assay [1] and in assay [2] were 46.4 µg/mL and 22.9 µg/mL, respectively.

In the case of `CC[C@H](CC[C@@H](C)[C@H]1CC[C@H]2[C@@H]3CC=C4C[C@@H](O)CC[C@]4(C)[C@H]3CC[C@]12C)C(C)C` [BETA-SITOSTEROL], the zone of inhibition at 1000 µg/mL in assay [6] turned out to be 13 mm; in assay [7] it was 15 mm.

Consider `Cc1c(O)c(C)c2c(c1O)C(=O)C[C@@H](c1ccc(O)cc1)O2` [FARREROL], for which the MIC in assay [3] is 4 µg/mL (≈ 13.3 µM); in assay [4], 8 µg/mL (≈ 26.6 µM); in assay [5] it was 2 µg/mL (≈ 6.66 µM).

Take `O=C(O[C@H]1[C@H]2c3cc4c(cc3CN3CCC(=C[C@@H]1OC(=O)c1cccc(Cl)c1)[C@H]23)OCO4)c1cccc(Cl)c1`: the MIC in [1] and in assay [2] was 5.6 µg/mL in each case.

For `O=C(O[C@H]1C=C2CCN3Cc4cc5c(cc4[C@H]([C@@H]1O)[C@@H]23)OCO5)c1ccc(Cl)cc1`, the MIC in assay [1] and in [2] was 42.6 µg/mL in each case.

Regarding `Cl.O[C@H]1[C@H]2c3cc4c(cc3CN3CCC(=C[C@@H]1O)[C@H]23)OCO4`, the MIC in assay [8] was greater than 32 µg/mL; in assay [1], 3 µg/mL; in assay [2], 32 µg/mL; in assay [9] it was greater than 32 µg/mL.

In the case of `Cc1ccccc1C(=O)O[C@H]1[C@H]2c3cc4c(cc3CN3CCC(=C[C@@H]1OC(=O)c1ccccc1C)[C@H]23)OCO4`, the MIC in [1] and in assay [2] was 4.1 µg/mL each time.

With `CC(=O)O[C@H]1[C@H]2c3cc4c(cc3CN3CC[C@H](C[C@@H]1OC(C)=O)[C@H]23)OCO4`, the MIC in [8], in [1], in assay [2] and in assay [9] was greater than 37 µg/mL each time.

As to `COC1C=C[C@@]23CCN(Cc4cc5c(cc42)OCO5)[C@@H]3C1` (stereo not given in full), the MIC in assay [10] and in [11] was 1020 µg/mL (≈ 3590 µM) throughout.

As for `O=c1c2cc3c(cc2c2cccc4c2n1CC4)OCO3`, the zone of inhibition at 10000 µM in assay [12] turned out to be 25 mm. Moreover, the MIC amounted to 10 µM in [1] and 100 µM in assay [2].

Take `O[C@@H]1C=C[C@]23c4cc5c(cc4C[N@@](C[C@@H]2O)[C@H]3C1)OCO5`: in assay [13], the zone of inhibition at 3000 µg/mL stood at 17 mm.

As to `Cc1ccccc1NC(=O)O[C@H]1[C@H]2c3cc4c(cc3CN3CCC(=C[C@@H]1OC(=O)Nc1ccccc1C)[C@H]23)OCO4`, the MIC in assay [1] and in [2] was 5.5 µg/mL throughout.

With `O=C(O[C@H]1C=C2CCN3Cc4cc5c(cc4[C@H]([C@@H]1OC(=O)c1ccccc1Cl)[C@@H]23)OCO5)c1cccc(Cl)c1`, the MIC in assay [1] worked out at 31 µg/mL; in assay [2] it was 5.6 µg/mL.

For `COc1cc2c(cc1OC)[C@@H](O)O[C@@H]1CC=C3CCN(C)[C@H]3[C@H]21`, the zone of inhibition at 1000 µg/mL came to 15 mm in assay [6] and 14 mm in assay [7].

As to `Cc1ccc(C(=O)O[C@H]2C=C3CCN4Cc5cc6c(cc5[C@H]([C@@H]2O)[C@@H]34)OCO6)cc1`, the MIC in [1] came out at 4.7 µg/mL; in assay [2] it was 22.9 µg/mL.

`Cc1cccc(C(=O)O[C@H]2[C@H]3c4cc5c(cc4CN4CCC(=C[C@@H]2OC(=O)c2cccc(C)c2)[C@H]34)OCO5)c1`: the MIC in assay [1] was found to be 5.2 µg/mL; in assay [2], 28.8 µg/mL.

As to `CN(C)[C@@H]1C(O)=C(C(N)=O)C(=O)[C@@]2(O)C(O)=C3C(=O)c4c(O)cccc4[C@@](C)(O)[C@H]3C[C@@H]12` [TETRACYCLINE], the minimal inhibitory concentration (MIC) was determined as 2 µg/mL (≈ 4.5 µM) in [10] and 0.5 µg/mL (≈ 1.13 µM) in [11].

As to `COc1ccc2c3c1O[C@H]1C[C@@H](O)C=C[C@@]31CCN(C)C2` [GALANTAMINE], the MIC in assay [10] and in assay [11] was 2050 µg/mL (≈ 7130 µM) in each case.

As for `O[C@H]1[C@H]2c3cc4c(cc3CN3CCC(=C[C@@H]1O)[C@H]23)OCO4` [LYCORINE], the zone of inhibition at 1000 µg/mL lay in the range of 13 to 25 mm in assay [6] and 15 to 28 mm in assay [7]. Moreover, the zone of inhibition at 10000 µM in [12] was 0 mm. Besides, the MIC in assay [8] is greater than 287 µg/mL; in [1] it was 100 µM; in assay [2], 100 µM; in assay [9] it was greater than 287 µg/mL.

Take `CC(=O)O[C@H]1C=C2CCN3Cc4cc5c(cc4[C@H]([C@@H]1O)[C@@H]23)OCO5`: the values for the MIC in assay [1] and in assay [2] were 16.6 µg/mL and 3.3 µg/mL, respectively.

For `Cc1ccccc1NC(=O)O[C@H]1C=C2CCN3Cc4cc5c(cc4[C@H]([C@@H]1O)[C@@H]23)OCO5`, the MIC is 23.2 µg/mL in [1] and 42.1 µg/mL in assay [2].

As a reminder, the MIC is the lowest concentration that inhibits growth of the organism. The low end stands for greater potency, the high end for weaker potency.
